Experimental data from patent US9462805B2, “Herbicide-resistant proteins, encoding genes, and uses thereof” (Beijing Dabeinong Technology Group Co., Ltd., priority 2012, dated 2016).

Assays:
[1] = tested on: corn plants transfected with control nucleotide sequence; experiment: Herbicide-resistance effect test of corn plants (control sequence; strains S10, S11); type: in vivo, maize; conditions: 8960 g ae/ha sprayed, 21 days after spraying; for Abnormal development of prop roots / Normal development of prop roots: number of plants
Description: (§1) Herbicide resistance effects tests to 2,4-D dimethyl ammonium salt and agroxone of maize plants containing 24DT02 nucleotide sequence, 24DT02 substituted nucleotide sequence, 24DT02 truncated nucleotide sequence, 24DT02 added nucleotide sequence, control nucleotide sequence respectively and wild type maize plants (stages V3-V4) were performed respectively.
(§2) Maize plants containing 24DT02 nucleotide sequence, 24DT02 substituted nucleotide sequence, 24DT02 truncated nucleotide sequence, 24DT02 added nucleotide sequence, control nucleotide sequence respectively and wild type maize plants were taken and spayed with 2,4-D dimethyl ammonium salt (8960 g ae/ha, 16-folds concentration in field), agroxone (8960 g ae/ha, 16-folds concentration in field) and blank solvent (water) respectively. Prop root development was counted 21 days after spaying. Three strains (S1, S2, and S3) of corn plants transfected with 24DT02 nucleotide sequence, two strains (S4 and S5) of corn plants transfected with 24DT02 substituted nucleotide sequence, two strains (S6 and S7) of corn plants transfected with 24DT02 truncated nucleotide sequence, two strains (S8 and S9) of corn plants transfected with 24DT02 added nucleotide sequence, two strains (S10 and S11) of corn plants transfected with control nucleotide sequence and 1 strain of wild type (CK) corn were selected and 10-15 plants from each stain were tested.

[2] = tested on: corn plants transfected with 24DT02 added nucleotide sequence; experiment: Herbicide-resistance effect test of transgenic corn plants (added 24DT02; strains S8, S9); type: in vivo, maize; conditions: 8960 g ae/ha sprayed, 21 days after spraying; for Abnormal development of prop roots / Normal development of prop roots: number of plants
Description: as §1, §2

[3] = tested on: wild type maize plants; experiment: Herbicide-resistance effect test of wild type (CK) corn; type: in vivo; conditions: 8960 g ae/ha sprayed, 21 days after spraying; for Abnormal development of prop roots / Normal development of prop roots: number of plants
Description: as §1, §2

[4] = tested on: corn plants transfected with 24DT02 truncated nucleotide sequence; experiment: Herbicide-resistance effect test of transgenic corn plants (truncated 24DT02; strains S6, S7); type: in vivo, maize; conditions: 8960 g ae/ha sprayed, 21 days after spraying; for Abnormal development of prop roots / Normal development of prop roots: number of plants
Description: as §1, §2

[5] = tested on: corn plants transfected with 24DT02 substituted nucleotide sequence; experiment: Herbicide-resistance effect test of transgenic corn plants (substituted 24DT02; strains S4, S5); type: in vivo, maize; conditions: 8960 g ae/ha sprayed, 21 days after spraying; for Abnormal development of prop roots / Normal development of prop roots: number of plants
Description: as §1, §2

[6] = tested on: Arabidopsis T1 plants transformed with added 24DT02 nucleotide sequence; experiment: Herbicide resistance effect test of transgenic Arabidopsis T1 plants (24DT02-a); type: in vivo, Arabidopsis thaliana; conditions: number of T1 plants, genotype 24DT02-a, 560 g ae/ha sprayed; for Moderately resistant: curly rosette leaves 7 days after spraying; for Non-resistant: dead 14 days after spraying; for Highly resistant: growth consistent with blank solvent 7 days after spraying; for Lowly resistant: incapable of bolting 14 days after spraying
Description: (§3) On 7 days after planting (DAP) and 11 DAP respectively, the T1 plants (cotyledon stage and 2-4 leaves stage, respectively) were sprayed with 0.2% of Liberty herbicide solution (200 g ai/L glufosinate-ammonium) using DeVilbiss compressed air nozzle at a spraying volume of 10 ml/disc (703 L/ha) so as to provide effective amount of glufosinate-ammonium (280 g ai/ha) for each application. The survival plants (actively growing plants) were verified 4 to 7 days after the last spraying and transferred into the square pot (7 cm×7 cm) made from vermiculite and horses dung (3-5 plants per pot). The transplanted plants were covered with moisturizing mask for 3-4 days and placed in culture room at 22° C. or directly into the greenhouse as described above. Then the mask was removed and the plants were planted in greenhouse (22±5° C., 50±30% RH, 14 hours of lighting: 10 hours of darkness, minimum […] natural light+complement light) at least one day before testing the ability of 24DT02 to provide the resistance to phenoxy auxin herbicide.
(§4) 24DT02 gene was used to transform Arabidopsis for the first time. At first, T1 transformants were selected from the background of un-transformed seeds, using glufosinate-ammonium selection scheme. About 40000 T1 seeds were screened among which 195 strains of T1 generation positive transformants (PAT gene) were identified, i.e. the transformation efficiency was about 0.5%. Herbicide resistance effect tests to 2,4-D dimethyl ammonium salt and agroxone of Arabidopsis T1 plants transformed with 24DT02 nucleotide sequence, substituted 24DT02 nucleotide sequence, truncated 24DT02 nucleotide sequence, added 24DT02 nucleotide sequence, control nucleotide sequence respectively and wild-type Arabidopsis plants were performed after 18 days of planting.
(§5) Arabidopsis T1 plants transformed with 24DT02 nucleotide sequence, substituted 24DT02 nucleotide sequence, truncated 24DT02 nucleotide sequence, added 24DT02 nucleotide sequence and control nucleotide sequence respectively and wild-type Arabidopsis plants were sprayed with 2,4-D dimethyl ammonium salt (560 g ae/ha, 1-fold concentration in field), agroxone (560 g ae/ha, 1-fold concentration in field) and blank solvent (water). Resistance conditions of the plants were counted 7 days and 14 days after spraying. Plants with growth conditions consistent with blank solvent (water) 7 days after spaying were classified as highly resistant plants; Plants with curly rosette leaves 7 days after spaying were classified as moderately resistant plants; Plants incapable of bolting 14 days after spaying were classified as low-resistant plants and the dead plants 14 days after spaying were classified as non-resistant plants. Because each Arabidopsis T1 plant was an independent transformation event, significant differences of individual T1 responses were expected under a given dose.

[7] = tested on: Arabidopsis T1 plants transformed with substituted 24DT02 nucleotide sequence; experiment: Herbicide resistance effect test of transgenic Arabidopsis T1 plants (24DT02-i); type: in vivo, Arabidopsis thaliana; conditions: number of T1 plants, genotype 24DT02-i, 560 g ae/ha sprayed; for Moderately resistant: curly rosette leaves 7 days after spraying; for Non-resistant: dead 14 days after spraying; for Highly resistant: growth consistent with blank solvent 7 days after spraying; for Lowly resistant: incapable of bolting 14 days after spraying
Description: as §3, §4, §5

[8] = tested on: Arabidopsis T1 plants transformed with 24DT02 nucleotide sequence; experiment: Herbicide resistance effect test of transgenic Arabidopsis T1 plants (24DT02); type: in vivo, Arabidopsis thaliana; conditions: number of T1 plants, genotype 24DT02; for Highly resistant: 560 g ae/ha (1-fold field concentration) sprayed, growth consistent with blank solvent 7 days after spraying; for Moderately resistant / Non-resistant / Lowly resistant: 560 g ae/ha sprayed; for Moderately resistant: curly rosette leaves 7 days after spraying; for Non-resistant: dead 14 days after spraying; for Lowly resistant: incapable of bolting 14 days after spraying
Description: as §3, §4, §5

[9] = tested on: Arabidopsis T1 plants transformed with control nucleotide sequence; experiment: Herbicide resistance effect test of Arabidopsis T1 plants (control sequence); type: in vivo, Arabidopsis thaliana; conditions: number of T1 plants, 560 g ae/ha sprayed; for Highly resistant: genotype Control (control sequence), growth consistent with blank solvent 7 days after spraying; for Moderately resistant / Non-resistant / Lowly resistant: genotype Control; for Moderately resistant: curly rosette leaves 7 days after spraying; for Non-resistant: dead 14 days after spraying; for Lowly resistant: incapable of bolting 14 days after spraying
Description: as §3, §4, §5

[10] = corn strain S10 (control sequence)
[11] = corn strain S11 (control sequence)
[12] = corn strain S6 (truncated 24DT02)
[13] = corn strain S7 (truncated 24DT02)
[14] = corn strain S4 (substituted 24DT02)
[15] = corn strain S5 (substituted 24DT02)

Compound: CNC.O=C(O)COc1ccc(Cl)cc1Cl [2,4-D dimethyl ammonium salt]
- Ratio of the normally developed prop roots [1, 10]: 0%
- Ratio of the normally developed prop roots [1, 11]: 0%
- Abnormal development of prop roots [1, 10]: 10
- Normal development of prop roots [1, 10]: 0
- Abnormal development of prop roots [1, 11]: 11
- Normal development of prop roots [1, 11]: 0
- Ratio of the normally developed prop roots ([2]; corn strain S8 (added 24DT02)): 80.00%
- Ratio of the normally developed prop roots ([2]; corn strain S9 (added 24DT02)): 78.57%
- Abnormal development of prop roots ([2]; corn strain S8 (added 24DT02)): 3
- Normal development of prop roots ([2]; corn strain S8 (added 24DT02)): 12
- Abnormal development of prop roots ([2]; corn strain S9 (added 24DT02)): 3
- Normal development of prop roots ([2]; corn strain S9 (added 24DT02)): 11
- Ratio of the normally developed prop roots [3]: 0%
- Abnormal development of prop roots [3]: 16
- Normal development of prop roots [3]: 0
- Ratio of the normally developed prop roots [4, 12]: 86.67%
- Ratio of the normally developed prop roots [4, 13]: 92.86%
- Abnormal development of prop roots [4, 12]: 2
- Normal development of prop roots [4, 12]: 13
- Abnormal development of prop roots [4, 13]: 1
- Normal development of prop roots [4, 13]: 13
- Ratio of the normally developed prop roots [5, 14]: 87.50%
- Ratio of the normally developed prop roots [5, 15]: 100.00%
- Abnormal development of prop roots [5, 14]: 2
- Normal development of prop roots [5, 14]: 14
- Abnormal development of prop roots [5, 15]: 0
- Normal development of prop roots [5, 15]: 15
- Moderately resistant [6]: 3
- Non-resistant [6]: 3
- Highly resistant [6]: 10
- Lowly resistant [6]: 2
- Moderately resistant [7]: 4
- Non-resistant [7]: 4
- Highly resistant [7]: 8
- Lowly resistant [7]: 1
- Highly resistant [8]: 9
- Moderately resistant [8]: 4
- Non-resistant [8]: 5
- Lowly resistant [8]: 0
- Highly resistant [9]: 0
- Moderately resistant [9]: 0
- Non-resistant [9]: 18
- Lowly resistant [9]: 0

Compound: Cc1cc(Cl)ccc1OCC(=O)O [agroxone]
- Ratio of the normally developed prop roots [1, 10]: 0%
- Ratio of the normally developed prop roots [1, 11]: 0%
- Abnormal development of prop roots [1, 10]: 10
- Normal development of prop roots [1, 10]: 0
- Abnormal development of prop roots [1, 11]: 10
- Normal development of prop roots [1, 11]: 0
- Ratio of the normally developed prop roots ([2]; corn strain S8 (added 24DT02)): 86.67%
- Ratio of the normally developed prop roots ([2]; corn strain S9 (added 24DT02)): 84.62%
- Abnormal development of prop roots ([2]; corn strain S8 (added 24DT02)): 2
- Normal development of prop roots ([2]; corn strain S8 (added 24DT02)): 13
- Abnormal development of prop roots ([2]; corn strain S9 (added 24DT02)): 2
- Normal development of prop roots ([2]; corn strain S9 (added 24DT02)): 11
- Ratio of the normally developed prop roots [3]: 0%
- Abnormal development of prop roots [3]: 16
- Normal development of prop roots [3]: 0
- Ratio of the normally developed prop roots [4, 12]: 87.50%
- Ratio of the normally developed prop roots [4, 13]: 86.67%
- Abnormal development of prop roots [4, 12]: 2
- Normal development of prop roots [4, 12]: 14
- Abnormal development of prop roots [4, 13]: 2
- Normal development of prop roots [4, 13]: 13
- Ratio of the normally developed prop roots [5, 14]: 81.25%
- Ratio of the normally developed prop roots [5, 15]: 93.33%
- Abnormal development of prop roots [5, 14]: 3
- Normal development of prop roots [5, 14]: 13
- Abnormal development of prop roots [5, 15]: 1
- Normal development of prop roots [5, 15]: 14
- Moderately resistant [6]: 5
- Non-resistant [6]: 3
- Highly resistant [6]: 8
- Lowly resistant [6]: 1
- Moderately resistant [7]: 5
- Non-resistant [7]: 6
- Highly resistant [7]: 9
- Lowly resistant [7]: 1
- Highly resistant [8]: 8
- Moderately resistant [8]: 6
- Non-resistant [8]: 4
- Lowly resistant [8]: 2
- Highly resistant [9]: 0
- Moderately resistant [9]: 0
- Non-resistant [9]: 17
- Lowly resistant [9]: 0
